Measured values as given in patent US20070254055A1, “Therapeutic Avenanthramide Compounds” (TRUSTEES OF TUFTS COLLEGE, priority 2003, published 2007).

Tested on: COX-2
Assay: TNF-α induced COX-2 expression in HT29 cells, Western blot
Assay type: cell-based, human
Conditions: 25 μM
Procedure: Western Blot Assay: HT-29 cells were seeded into 60 mm culture dishes and cultured to 70% confluence. Medium was changed from 10% to 1% FBS medium to minimize the effects of other growth-promoting substances normally contained in serum. For COX-2 expression studies, the cells were pre-treated with different concentrations of Avns oat extract and CH3-Avn-C for 1 hr followed by stimulation with 40 ng/ml of TNF-α for 23 hr. The medium was collected and kept at −80° C. for further analyzing prostaglandin E2 (PGE2) production. For analyzing the NFkB phosphorylation, the cells were pre-treated with different concentrations of Avns oat extract and CH3-Avn-C for 23 hr followed by stimulation with 40 ng/ml of TNF-α for 20 min. For determining the COX1 expression level, the cells were treated with different concentrations of Avns oat extract and CH3-Avn-C for 24 hr. To get the whole cell lysate for western, cells were harvested in 2× protein sample buffer by scraping the cells. […] Proteins bound to the primary antibodies were detected by the enhanced chemiluminescence (ECL) detection system and quantified by densitometric scanning.
Effect of Avns on COX-2 expression: HT29 cells express a low basal level of COX-2 protein. […] The expression of COX2 was measured by Western blotting. β-Actin expression level was used as a loading control. […]

For `CS(=O)(=O)Nc1ccc([N+](=O)[O-])cc1OC1CCCCC1` [NS398], the “inhibition of COX2 expression” value was 50%.
